The values that follow come from ChEMBL document CHEMBL1145872, “Synthesis and in vitro efficacy of acid-sensitive poly(ethylene glycol) paclitaxel conjugates” (Bioorg Med Chem Lett, 2003).

What all share (format): functional, cell-based
Assay [1] relates to RXF 944. Briefly: In vitro inhibitory concentration of compound against human cancer RXF 944 cell line was determined.
Assay [2] deals with MEXF514. Briefly: In vitro inhibitory concentration of compound against human cancer MEXF 514 cell line was determined.
Assay [3] has as its system MCF7. Briefly: In vitro inhibitory concentration of compound against human cancer MACL MCF-7 cell line was determined.

In the case of `CC(=O)O[C@H]1C(=O)[C@@]2(C)C([C@H](OC(=O)c3ccccc3)C3(O)C[C@H](OC(=O)[C@H](OC(=O)c4ccc(C(C)=O)cc4)[C@@H](NC(=O)c4ccccc4)c4ccccc4)C(C)=C1C3(C)C)[C@]1(OC(C)=O)COC1C[C@@H]2O` (stereo not given in full), the IC50 – broadly, the concentration that gives 50% inhibition – in assay [1] is 90 nM; in assay [2], 220 nM; in assay [3], 130 nM.
With `CC(=O)O[C@H]1C(=O)[C@@]2(C)[C@H]([C@H](OC(=O)c3ccccc3)[C@]3(O)C[C@H](OC(=O)[C@H](O)[C@@H](NC(=O)c4ccccc4)c4ccccc4)C(C)=C1C3(C)C)[C@]1(OC(C)=O)CO[C@@H]1C[C@@H]2O` [PACLITAXEL], the half-inhibitory concentration (IC50) in assay [1] was 50 nM; in assay [2] it was 1030 nM.
